Experimental data from patent US20070197608A1, “Piperazines as oxytocin agonists” (Ferring B.V., priority 2003, published 2007).

Target: T1, human OT receptor (Homo sapiens, UniProt P30559)
T1 construct: expressed in transfected cells; host or cells: mammalian cell line, e.g. Chinese hamster ovary (CHO), stably or transiently transfected; co-transfected with a firefly luciferase reporter (e.g. NFAT promoter)
T1 sequence (P30559 1-389): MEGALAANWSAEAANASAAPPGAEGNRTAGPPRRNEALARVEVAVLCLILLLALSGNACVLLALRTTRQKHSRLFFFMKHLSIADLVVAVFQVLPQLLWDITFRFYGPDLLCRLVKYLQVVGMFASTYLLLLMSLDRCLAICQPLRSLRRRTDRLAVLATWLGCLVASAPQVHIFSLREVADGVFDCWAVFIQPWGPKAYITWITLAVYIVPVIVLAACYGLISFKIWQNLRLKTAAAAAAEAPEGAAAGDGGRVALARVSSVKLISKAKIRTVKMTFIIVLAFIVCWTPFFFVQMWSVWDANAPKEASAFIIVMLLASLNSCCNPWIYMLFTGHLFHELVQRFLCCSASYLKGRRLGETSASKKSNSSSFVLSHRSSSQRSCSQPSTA
Experiment: human OT receptor agonist assay, luciferase reporter (NFAT promoter) in transfected CHO cells
Type: cell-based
Details: for EC50: concentration at which the response is 50% of the maximum, 4-parameter logistic fit, luciferase reporter in cells expressing the human OT receptor; for OT (efficacy): maximal efficacy compared to the maximal stimulation observed with OT
Procedure: In addition, the cells are transfected with a gene for firefly luciferase under the control of a suitable promoter, e.g. NFAT promoter. Contact of the OT receptor by an agonist leads to stimulation of luciferase synthesis, the extent of which is measured using commercially available reagents. Concentrations at which the response is 50% of the maximum are calculated by fitting of data to 4-parameter logistic curves. Maximal efficacy is calculated compared to the maximal stimulation observed with OT.

Row | EC50 [nM] | OT (efficacy) [%] | Compound
1 | 190 | 21 | Cc1cc(C(=O)N2Cc3cnn(C)c3Nc3ccccc32)ccc1CNC(=O)N1CCN(Cc2cccc(C(=S)N(C)C)c2)CC1 [Example 6, 4-(3-Dimethylthiocarbamoyl-benzyl)-piperazine-1-carboxylic acid 2-methyl-4-(3-methyl-4,10-dihydro-3H-2,3,4,9-tetraaza-benzo[f]azulene-9-carbonyl)-benzylamide]
2 | 74 | 51 | Cn1ncc2c1Nc1ccccc1N(C(=O)c1ccc(CNC(=O)N3CCN(Cc4cc(O)cc(O)c4)CC3)c(F)c1)C2 [Example 4, 4-(3,5-Dihydroxy-benzyl)-piperazine-1-carboxylic acid 2-fluoro-4-(3-methyl-4,10-dihydro-3H-2,3,4,9-tetraaza-benzo[f]azulene-9-carbonyl)-benzylamide]
3 | 33 | 13 | Cc1cc(C(=O)N2Cc3cnn(C)c3Nc3ccccc32)ccc1CNC(=O)N1CCN(Cc2cccc(C(=O)N(C)C)c2)CC1 [Example 5, 4-(3-Dimethylcarbamoyl-benzyl)-piperazine-1-carboxylic acid 2-methyl-4-(3-methyl-4,10-dihydro-3H-2,3,4,9-tetraaza-benzo[f]azulene-9-carbonyl)-benzylamide]

More lines, now with the values behind:

Row | Compound | EC50 [nM] | OT (efficacy) [%]
4 | Cn1ncc2c1Nc1ccccc1N(C(=O)c1ccc(CNC(=O)N3CCN(Cc4cc(O)cc(O)c4)CC3)cc1Cl)C2 [Example 3, 4-(3,5-Dihydroxy-benzyl)-piperazine-1-carboxylic acid 3-chloro-4-(3-methyl-4,10-dihydro-3H-2,3,4,9-tetraaza-benzo[f]azulene-9-carbonyl)-benzylamide] | 58 | 41
5 | Cc1cc(C(=O)N2Cc3cnn(C)c3Nc3ccccc32)cc(C)c1CNC(=O)N1CCN(Cc2cc(O)cc(O)c2)CC1 [Example 2, 4-(3,5-Dihydroxy-benzyl)-piperazine-1-carboxylic acid 2,6-dimethyl-4-(3-methyl-4,10-dihydro-3H-2,3,4,9-tetraaza-benzo[f]azulene-9-carbonyl)-benzylamide] | 24 | 16
6 | Cc1cc(C(=O)N2Cc3cnn(C)c3Nc3ccccc32)ccc1CNC(=O)N1CCN(Cc2cc(O)cc(O)c2)CC1 [Example 1, 4-(3,5-Dihydroxy-benzyl)-piperazine-1-carboxylic acid 2-methyl-4-(3-methyl-4,10-dihydro-3H-2,3,4,9-tetraaza-benzo[f]azulene-9-carbonyl)-benzylamide] | – | 76
